Tests used:
Type in all cases: in vivo
[1] = test system: Surinam grass (Brachiaria decumbens); assay: Test B postemergence
Method in brief: (§1)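 Greenhouse test: chemicals are formulated in a surfactant-containing non-phytotoxic solvent and applied either preemergence to planted seeds or postemergence to plants 2 to 18 cm tall. Response is rated visually versus controls after 13 to 15 days, 0 meaning no effect and 100 complete control.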

[2] = test system: barnyardgrass (Echinochloa crus-galli); assay: Test B postemergence
Method in brief: as §1

[3] = test system: blackgrass (Alopecurus myosuroides); assay: Test B postemergence
Method in brief: as §1

[4] = test system: cocklebur (Xanthium strumarium); assay: Test B postemergence
Method in brief: as §1

corn (Zea mays) [5] = assay: Test B postemergence
Method in brief: as §1

[6] = test system: crabgrass (Digitaria sanguinalis); assay: Test B postemergence
Method in brief: as §1

[7] = test system: giant foxtail (Setaria faberii); assay: Test B postemergence
Method in brief: as §1

[8] = test system: lambsquarters (Chenopodium album); assay: Test B postemergence
Method in brief: as §1

[9] = test system: morning glory (Ipomoea hederacea); assay: Test B postemergence
Method in brief: as §1

[10] = test system: pigweed (Amaranthus retroflexus); assay: Test B postemergence
Method in brief: as §1

[11] = test system: velvetleaf (Abutilon theophrasti); assay: Test B postemergence
Method in brief: as §1

[12] = test system: wheat (Triticum aestivum); assay: Test B postemergence
Method in brief: as §1

wild oat (Avena fatua) = assay: Test B postemergence
Method in brief: as §1

[13] = test system: Surinam grass (Brachiaria decumbens); assay: Test B preemergence
Method in brief: as §1

[14] = test system: barnyardgrass (Echinochloa crus-galli); assay: Test B preemergence
Method in brief: as §1

[15] = test system: cocklebur (Xanthium strumarium); assay: Test B preemergence
Method in brief: as §1

corn (Zea mays) [16] = assay: Test B preemergence
Method in brief: as §1

[17] = test system: crabgrass (Digitaria sanguinalis); assay: Test B preemergence
Method in brief: as §1

[18] = test system: giant foxtail (Setaria faberii); assay: Test B preemergence
Method in brief: as §1

[19] = test system: lambsquarters (Chenopodium album); assay: Test B preemergence
Method in brief: as §1

[20] = test system: morning glory (Ipomoea hederacea); assay: Test B preemergence
Method in brief: as §1

[21] = test system: pigweed (Amaranthus retroflexus); assay: Test B preemergence
Method in brief: as §1

rice (Oryza saliva) = assay: Test B preemergence
Method in brief: as §1

[22] = test system: velvetleaf (Abutilon theophrasti); assay: Test B preemergence
Method in brief: as §1

[23] = test system: smallflower flatsedge (Cyperus difformis); assay: Test C flooded paddy test; settings: for Flatsedge plant response rating: Flooded Paddy, scale 0 to 100, 0 no effect, 100 complete control; for Plant response rating, Flatsedge: flooded paddy test, scale 0 to 100 (0 no effect, 100 complete control)
Method in brief: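 Visual ratings (0 = no effect, 100 = complete control) were made 12–14 days after treatment, relative to greenhouse controls. Plants in the flooded paddy test were rice, smallflower flatsedge, duck salad and barnyardgrass, treated at the 2-leaf stage.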

[24] = Rate 125 g/ha, scale 0 (no effect) to 100 (complete control), 13 to 15 days
[25] = Rate 500 g/ha, scale 0 to 100, 0 is no effect, 100 is complete control, 13 to 15 days
[26] = Preemergence, Rate 500 g/ha, scale 0 to 100, 0 no effect, 100 complete control
[27] = preemergence, Rate 125 g/ha, scale 0 to 100, 0 no effect, 100 complete control
[28] = Rate 62 g/ha, scale 0 to 100, 0 no effect, 100 complete control
[29] = Rate 250 g/ha, scale 0 (no effect) to 100 (complete control), 13 to 15 days
[30] = preemergence, Rate 62 g/ha, scale of 0 to 100 where 0 is no effect and 100 is complete control, 13 to 15 days
[31] = preemergence, Rate 250 g/ha, scale 0 to 100, 0 no effect, 100 complete control

O=C1C(n2cc(Cl)c(C3CC3)n2)CCN1c1cccc(C(F)(F)F)c1 (stereo not drawn) [Compound 12]
0: Plant response rating, Surinam grass [1, 24] | Plant response rating, Surinam grass [1, 25] | Plant response rating, Barnyardgrass [2, 24] | Plant response rating, Barnyardgrass [2, 25] | Plant response rating, Blackgrass [3, 24] | Plant response rating, Blackgrass [3, 25] | Plant response rating, Cocklebur [4, 24] | Plant response rating, Cocklebur [4, 25] | Plant response rating, Corn (corn (Zea mays) [5]; [24]) | Plant response rating, Corn (corn (Zea mays) [5]; [25]) | Plant response rating, Crabgrass [6, 24] | Plant response rating, Crabgrass [6, 25] | Plant response rating, Foxtail, Giant [7, 24] | Plant response rating, Foxtail, Giant [7, 25] | Plant response rating, Lambsquarters [8, 24] | Plant response rating, Lambsquarters [8, 25] | Plant response rating, Morningglory [9, 24] | Plant response rating, Morningglory [9, 25] | Plant response rating, Pigweed [10, 24] | Plant response rating, Pigweed [10, 25] | Plant response rating, Velvetleaf [11, 24] | Plant response rating, Velvetleaf [11, 25] | Plant response rating, Wheat [12, 24] | Plant response rating, Wheat [12, 25] | Plant response rating, Wild Oat (wild oat (Avena fatua); [24]) | Plant response rating, Wild Oat (wild oat (Avena fatua); [25]) | Plant response rating, Surinam grass [13, 26] | Plant response rating, Surinam grass [13, 27] | Plant response rating, Barnyardgrass [14, 26] | Plant response rating, Barnyardgrass [14, 27] | Plant response rating, Cocklebur [15, 26] | Plant response rating, Cocklebur [15, 27] | Plant response rating, Corn (corn (Zea mays) [16]; [26]) | Plant response rating, Corn (corn (Zea mays) [16]; [27]) | Plant response rating, Crabgrass [17, 26] | Plant response rating, Crabgrass [17, 27] | Plant response rating, Foxtail, Giant [18, 26] | Plant response rating, Foxtail, Giant [18, 27] | Plant response rating, Lambsquarters [19, 26] | Plant response rating, Lambsquarters [19, 27] | Plant response rating, Morningglory [20, 26] | Plant response rating, Morningglory [20, 27] | Plant response rating, Pigweed [21, 26] | Plant response rating, Pigweed [21, 27] | Plant response rating, Rice (rice (Oryza saliva); [26]) | Plant response rating, Rice (rice (Oryza saliva); [27]) | Plant response rating, Velvetleaf [22, 26] | Plant response rating, Velvetleaf [22, 27]

CC(C)(C)c1ccn(C2CCN(c3cccc(C(F)(F)F)c3)C2=O)n1 (stereo not drawn) [Example 3, 3-[3-(1,1-dimethylethyl)-1H-pyrazol-1-yl]-1-[3-(trifluoromethyl)phenyl]-2-pyrrolidinone]
100: Plant response rating, Lambsquarters [8, 25] | Plant response rating, Barnyardgrass [14, 26] | Plant response rating, Crabgrass [17, 26] | Plant response rating, Lambsquarters [19, 26] | Plant response rating, Lambsquarters [19, 27] | Plant response rating, Pigweed [21, 26] | Plant response rating, Pigweed [21, 27] | Flatsedge plant response rating ([23]; Rate 250 g/ha) | Flatsedge plant response rating ([23]; Rate 500 g/ha) | Flatsedge plant response rating ([23]; rate of this column group stands in head line r653, not shown (group before Rate 500 g/ha)) | Plant response rating, Flatsedge ([23]; Rate 125 g/ha)
30: Plant response rating, Cocklebur [4, 25] | Plant response rating, Foxtail, Giant [7, 25] | Plant response rating, Morningglory [9, 25] | Plant response rating, Corn (corn (Zea mays) [16]; [26])
20: Plant response rating, Surinam grass [1, 25]
80: Plant response rating, Lambsquarters [8, 24] | Plant response rating, Barnyardgrass [14, 27] | Plant response rating, Foxtail, Giant [18, 26]
0: Plant response rating, Surinam grass [1, 24] | Plant response rating, Barnyardgrass [2, 24] | Plant response rating, Blackgrass [3, 24] | Plant response rating, Blackgrass [3, 25] | Plant response rating, Cocklebur [4, 24] | Plant response rating, Corn (corn (Zea mays) [5]; [24]) | Plant response rating, Corn (corn (Zea mays) [5]; [25]) | Plant response rating, Crabgrass [6, 24] | Plant response rating, Foxtail, Giant [7, 24] | Plant response rating, Morningglory [9, 24] | Plant response rating, Velvetleaf [11, 24] | Plant response rating, Velvetleaf [11, 25] | Plant response rating, Wheat [12, 24] | Plant response rating, Wheat [12, 25] | Plant response rating, Wild Oat (wild oat (Avena fatua); [24]) | Plant response rating, Wild Oat (wild oat (Avena fatua); [25]) | Plant response rating, Cocklebur [15, 26] | Plant response rating, Cocklebur [15, 27] | Plant response rating, Corn (corn (Zea mays) [16]; [27]) | Plant response rating, Morningglory [20, 26] | Plant response rating, Morningglory [20, 27] | Plant response rating, Velvetleaf [22, 26] | Plant response rating, Velvetleaf [22, 27]
40: Plant response rating, Crabgrass [6, 25] | Plant response rating, Surinam grass [13, 27] | Plant response rating, Foxtail, Giant [18, 27]
90: Plant response rating, Pigweed [10, 25] | Plant response rating, Flatsedge ([23]; Rate 62 g/ha)
70: Plant response rating, Barnyardgrass [2, 25] | Plant response rating, Pigweed [10, 24] | Plant response rating, Surinam grass [13, 26] | Plant response rating, Crabgrass [17, 27]

CC(C)(C)c1ccn(C2OCN(c3cccc(C(F)(F)F)c3)C2=O)n1 (stereo not drawn) [compound 9]
10: Plant response rating, Cocklebur [4, 28] | Plant response rating, Morningglory [9, 29]
80: Plant response rating, Lambsquarters [8, 29] | Plant response rating, Pigweed [10, 29] | Plant response rating, Pigweed [21, 30]
60: Plant response rating, Barnyardgrass [2, 29] | Plant response rating, Barnyardgrass [14, 31]
20: Plant response rating, Cocklebur [4, 29]
70: Plant response rating, Lambsquarters [8, 28] | Plant response rating, Pigweed [10, 28] | Plant response rating, Surinam grass [13, 31]
0: Plant response rating, Surinam grass [1, 28] | Plant response rating, Surinam grass [1, 29] | Plant response rating, Barnyardgrass [2, 28] | Plant response rating, Blackgrass [3, 28] | Plant response rating, Blackgrass [3, 29] | Plant response rating, Corn (corn (Zea mays) [5]; [28]) | Plant response rating, Corn (corn (Zea mays) [5]; [29]) | Plant response rating, Crabgrass [6, 28] | Plant response rating, Crabgrass [6, 29] | Plant response rating, Foxtail, Giant [7, 28] | Plant response rating, Foxtail, Giant [7, 29] | Plant response rating, Morningglory [9, 28] | Plant response rating, Velvetleaf [11, 28] | Plant response rating, Velvetleaf [11, 29] | Plant response rating, Wheat [12, 28] | Plant response rating, Wheat [12, 29] | Plant response rating, Wild Oat (wild oat (Avena fatua); [28]) | Plant response rating, Wild Oat (wild oat (Avena fatua); [29]) | Plant response rating, Surinam grass [13, 30] | Plant response rating, Barnyardgrass [14, 30] | Plant response rating, Cocklebur [15, 30] | Plant response rating, Cocklebur [15, 31] | Plant response rating, Corn (corn (Zea mays) [16]; [30]) | Plant response rating, Corn (corn (Zea mays) [16]; [31]) | Plant response rating, Crabgrass [17, 30] | Plant response rating, Morningglory [20, 30] | Plant response rating, Morningglory [20, 31] | Plant response rating, Rice (rice (Oryza saliva); [30]) | Plant response rating, Rice (rice (Oryza saliva); [31]) | Plant response rating, Velvetleaf [22, 30] | Plant response rating, Velvetleaf [22, 31]
90: Plant response rating, Foxtail, Giant [18, 31] | Plant response rating, Lambsquarters [19, 30]
30: Plant response rating, Foxtail, Giant [18, 30]
100: Plant response rating, Crabgrass [17, 31] | Plant response rating, Lambsquarters [19, 31] | Plant response rating, Pigweed [21, 31]

— patent US7138361B2, “Herbicidal heterocycles” (E. I. du Pont de Nemours and Company, priority 2000, dated 2006)
